In ChEMBL document CHEMBL5325507, “A TNF-α blocking peptide that reduces NF-κB and MAPK activity for attenuating inflammation” (Bioorg Med Chem, 2023):
Calls of active or inactive are those of the source. The rule behind the calls is not given here. Numbered stars: 1 amine (or outer) side, 2 acyl side, 3 side chain; on linkers, the order of the positions; unused ones are H or OH. Bridge positions count the residues as written; N and C are the ends. Square brackets hold non-standard residues; d marks the D form. Peptide text beside a SMILES is read from it. I, II: the chains in the order shown. Actinocin(9to1) = Cc1c2oc3c(C)ccc(C(=O)[*:1])c3nc-2c(C(=O)[*:2])c(N)c1=O; NMeV = CN[C@H](C(=O)O)C(C)C; Sar = CNCC(=O)O

How the values were obtained:
[1] = test system: HEK293-A; test: Inhibition of TNF-alpha induced MAPK activation in HEK293-A cells incubated for 15 mins by Western blot analysis; format: cell-based; details: Homo sapiens, dose 15-120 µM
[2] = test system: HEK293-A; test: Inhibition of TNF-alpha induced MAPK activation in HEK293-A cells assessed as decrease in phosphorylated p38 expression at 15 to 120 uM incubated for 15 mins by Western blot analysis; format: cell-based; details: Homo sapiens, dose 15-120 µM
[3] = test system: HT-29; test: Antiinflammatory activity in human HT-29 cells assessed as downregulation of TNF-alpha-induced ICAM mRNA expression incubated for 6 hrs by RT-PCR analysis; format: functional, cell-based; details: dose 15-20 µM
[4] = target: T1, Nuclear factor NF-kappa-B complex (Homo sapiens) (UniProt Q00653+P19838+Q04206); test: Inhibition of TNF-alpha induced NF-kappaB activation in HEK293-A cells at 15 to 120 uM by Western blot analysis; format: cell-based; details: dose 15-120 µM, time 15.0 min, TDE = time-dependent effect
T1 sequence (P19838 whole entry, looked up): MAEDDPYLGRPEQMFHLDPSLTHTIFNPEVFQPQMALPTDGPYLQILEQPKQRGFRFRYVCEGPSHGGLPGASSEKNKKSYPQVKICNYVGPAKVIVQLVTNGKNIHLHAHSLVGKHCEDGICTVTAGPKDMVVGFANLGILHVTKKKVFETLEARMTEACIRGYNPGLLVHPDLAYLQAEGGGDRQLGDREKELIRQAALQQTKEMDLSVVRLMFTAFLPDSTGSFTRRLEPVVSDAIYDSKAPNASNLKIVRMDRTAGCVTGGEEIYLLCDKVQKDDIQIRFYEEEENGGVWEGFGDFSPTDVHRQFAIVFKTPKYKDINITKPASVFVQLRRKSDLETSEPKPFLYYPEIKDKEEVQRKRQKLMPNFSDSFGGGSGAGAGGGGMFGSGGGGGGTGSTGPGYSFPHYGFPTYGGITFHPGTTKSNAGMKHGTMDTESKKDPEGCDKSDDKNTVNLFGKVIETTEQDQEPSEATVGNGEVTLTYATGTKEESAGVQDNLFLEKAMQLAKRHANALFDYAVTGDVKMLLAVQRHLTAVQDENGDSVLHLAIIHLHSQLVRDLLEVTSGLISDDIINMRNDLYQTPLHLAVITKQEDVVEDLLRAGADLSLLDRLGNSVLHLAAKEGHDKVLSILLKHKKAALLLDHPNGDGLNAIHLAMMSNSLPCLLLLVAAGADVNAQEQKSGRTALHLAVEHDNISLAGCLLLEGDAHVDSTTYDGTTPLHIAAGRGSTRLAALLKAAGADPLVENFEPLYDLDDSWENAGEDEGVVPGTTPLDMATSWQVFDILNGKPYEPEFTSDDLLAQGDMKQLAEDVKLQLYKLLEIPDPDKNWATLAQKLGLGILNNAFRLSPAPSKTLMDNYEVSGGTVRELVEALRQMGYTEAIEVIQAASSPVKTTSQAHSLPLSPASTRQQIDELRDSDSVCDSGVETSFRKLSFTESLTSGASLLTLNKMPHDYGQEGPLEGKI
T1 sequence (Q00653 whole entry, looked up): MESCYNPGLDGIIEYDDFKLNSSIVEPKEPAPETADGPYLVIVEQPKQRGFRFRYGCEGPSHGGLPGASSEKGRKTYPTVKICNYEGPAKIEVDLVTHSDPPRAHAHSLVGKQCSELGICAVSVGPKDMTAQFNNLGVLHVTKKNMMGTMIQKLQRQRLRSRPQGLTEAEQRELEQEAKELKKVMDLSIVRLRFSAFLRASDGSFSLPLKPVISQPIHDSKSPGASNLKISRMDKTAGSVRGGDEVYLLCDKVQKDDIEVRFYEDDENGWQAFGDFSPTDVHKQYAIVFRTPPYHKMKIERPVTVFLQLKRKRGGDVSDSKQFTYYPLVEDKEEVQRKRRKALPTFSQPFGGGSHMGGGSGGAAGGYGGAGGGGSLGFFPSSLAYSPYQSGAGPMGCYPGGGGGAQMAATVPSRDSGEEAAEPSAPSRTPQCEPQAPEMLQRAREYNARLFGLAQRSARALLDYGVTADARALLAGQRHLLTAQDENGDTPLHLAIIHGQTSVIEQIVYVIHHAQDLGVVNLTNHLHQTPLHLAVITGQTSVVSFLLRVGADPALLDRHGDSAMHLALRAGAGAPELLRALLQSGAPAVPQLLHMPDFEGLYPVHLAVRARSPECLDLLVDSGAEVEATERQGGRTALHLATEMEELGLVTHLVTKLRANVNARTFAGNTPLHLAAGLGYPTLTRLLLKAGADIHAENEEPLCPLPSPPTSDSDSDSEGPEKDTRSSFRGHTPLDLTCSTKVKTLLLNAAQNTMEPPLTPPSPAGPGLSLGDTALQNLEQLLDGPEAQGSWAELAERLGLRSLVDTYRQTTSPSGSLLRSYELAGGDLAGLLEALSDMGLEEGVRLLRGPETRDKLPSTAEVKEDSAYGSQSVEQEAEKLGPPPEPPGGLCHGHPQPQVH
T1 sequence (Q04206 whole entry, looked up): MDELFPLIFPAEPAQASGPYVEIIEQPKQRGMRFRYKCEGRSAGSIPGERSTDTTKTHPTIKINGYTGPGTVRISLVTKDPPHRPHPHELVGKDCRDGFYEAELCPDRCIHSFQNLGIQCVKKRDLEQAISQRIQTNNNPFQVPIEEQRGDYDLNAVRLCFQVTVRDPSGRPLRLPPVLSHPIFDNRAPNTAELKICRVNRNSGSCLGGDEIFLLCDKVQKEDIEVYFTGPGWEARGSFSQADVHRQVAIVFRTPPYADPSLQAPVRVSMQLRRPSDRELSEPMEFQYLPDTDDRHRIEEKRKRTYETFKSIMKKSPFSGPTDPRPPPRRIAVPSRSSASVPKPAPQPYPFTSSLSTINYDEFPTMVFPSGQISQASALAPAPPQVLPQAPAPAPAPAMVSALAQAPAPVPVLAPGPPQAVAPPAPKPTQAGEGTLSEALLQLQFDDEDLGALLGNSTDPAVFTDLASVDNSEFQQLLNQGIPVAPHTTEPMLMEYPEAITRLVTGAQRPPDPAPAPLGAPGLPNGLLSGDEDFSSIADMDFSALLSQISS

[5] = target: T1, Nuclear factor NF-kappa-B complex (Homo sapiens); test: Inhibition of TNF-alpha induced NF-kappaB activation in HEK293-A cells assessed as decrease in phosphorylated IkappaB level at 15 to 120 uM incubated for 15 mins by Western blot analysis; format: cell-based; details: dose 15-120 µM
[6] = target: T2, Tumor necrosis factor receptor superfamily member 1B (Homo sapiens, UniProt P20333); test: Competitive Inhibition of TNF-alpha binding to human recombinant TNFR2 incubated for 1 hr by ELISA analysis
T2 sequence (P20333 whole entry): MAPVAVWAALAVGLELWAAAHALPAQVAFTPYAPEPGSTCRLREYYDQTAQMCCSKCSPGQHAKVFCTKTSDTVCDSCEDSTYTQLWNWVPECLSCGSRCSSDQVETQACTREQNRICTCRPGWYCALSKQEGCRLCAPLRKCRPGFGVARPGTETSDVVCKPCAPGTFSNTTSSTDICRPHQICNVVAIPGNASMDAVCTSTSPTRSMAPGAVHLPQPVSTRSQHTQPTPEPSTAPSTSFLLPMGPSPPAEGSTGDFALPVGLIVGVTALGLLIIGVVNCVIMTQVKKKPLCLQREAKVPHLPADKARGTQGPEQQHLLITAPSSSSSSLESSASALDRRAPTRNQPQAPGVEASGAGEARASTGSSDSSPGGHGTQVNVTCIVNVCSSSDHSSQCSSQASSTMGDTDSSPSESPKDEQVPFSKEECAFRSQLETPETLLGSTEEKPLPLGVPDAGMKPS

[7] = test system: HEK293-A; test: Inhibition of TNF-alpha induced MAPK activation in HEK293-A cells at 15 to 120 uM by Western blot analysis; format: cell-based; details: Homo sapiens, dose 15-120 µM, time 15.0 min, TDE = time-dependent effect
[8] = test system: HT-29; test: Antiinflammatory activity in human HT-29 cells assessed as downregulation of TNF-alpha-induced IL-8 mRNA expression incubated for 6 hrs by RT-PCR analysis; format: functional, cell-based; details: dose 15-20 µM
[9] = test system: L929; test: Cytotoxicity against TNF-alpha induced mouse L929 cells assessed as increase in cell survival pretreated for 12 hrs followed by TNF-alpha induction and measured after 18 to 20 hrs by MTT assay; format: toxicity, cell-based
[10] = target: Transcription factor p65 (Homo sapiens) (UniProt Q04206); test: Inhibition of TNF-alpha induced NF-kappaB p65 nuclear translocation in human HaCaT cells at 30 to 120 uM incubated for 10 mins DAPI staining based fluorescence microscopic analysis; format: cell-based; details: dose 30-120 µM
Chain of Transcription factor p65 (Homo sapiens) (Q04206 whole entry): as the sequence (Q04206 whole entry, looked up) above

[11] = test system: HEK293-A; test: Inhibition of TNF-alpha induced MAPK activation in HEK293-A cells assessed as decrease in phosphorylated JNK expression at 15 to 120 uM incubated for 15 mins by Western blot analysis; format: cell-based; details: Homo sapiens, dose 15-120 µM
[12] = test system: HT-29; test: Antiinflammatory activity in human HT-29 cells assessed as downregulation of TNF-alpha-induced IL-1beta mRNA expression incubated for 6 hrs by RT-PCR analysis; format: functional, cell-based; details: dose 15-20 µM
[13] = test system: HEK293-A; test: Inhibition of TNF-alpha induced MAPK activation in HEK293-A cells assessed as decrease in phosphorylated ERK expression at 15 to 120 uM incubated for 15 mins by Western blot analysis; format: cell-based; details: Homo sapiens, dose 15-120 µM
[14] = test system: HT-29; test: Antiinflammatory activity in human HT-29 cells assessed as downregulation of TNF-alpha-induced IFN-gamma mRNA expression incubated for 6 hrs by RT-PCR analysis; format: functional, cell-based; details: dose 15-20 µM
[15] = target: T1, Nuclear factor NF-kappa-B complex (Homo sapiens); test: Inhibition of TNF-alpha induced NF-kappaB activation in HEK293-A cells incubated for 15 mins by Western blot analysis; format: cell-based; details: dose 15-120 µM
[16] = target: T3, Tumor necrosis factor receptor superfamily member 1A (Homo sapiens, UniProt P19438); test: Competitive Inhibition of TNF-alpha binding to human recombinant TNFR1 incubated for 1 hr by ELISA analysis
T3 sequence (P19438 whole entry): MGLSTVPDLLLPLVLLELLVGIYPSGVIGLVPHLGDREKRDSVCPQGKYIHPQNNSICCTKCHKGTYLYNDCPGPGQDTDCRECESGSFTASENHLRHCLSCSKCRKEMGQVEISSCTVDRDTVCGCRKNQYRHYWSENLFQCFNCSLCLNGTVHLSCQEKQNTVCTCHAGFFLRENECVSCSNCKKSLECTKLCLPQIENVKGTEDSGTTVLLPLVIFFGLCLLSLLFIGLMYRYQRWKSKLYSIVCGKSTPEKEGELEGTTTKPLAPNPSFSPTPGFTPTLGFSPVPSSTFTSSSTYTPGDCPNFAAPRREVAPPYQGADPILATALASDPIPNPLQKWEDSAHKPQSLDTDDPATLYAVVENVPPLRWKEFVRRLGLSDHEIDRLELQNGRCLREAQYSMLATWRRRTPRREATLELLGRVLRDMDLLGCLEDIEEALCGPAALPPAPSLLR

[17] = target: Transcription factor p65 (Homo sapiens) (UniProt Q04206); test: Inhibition of TNF-alpha induced NF-kappaB p65 nuclear translocation in human HaCaT cells at 120 uM incubated for 10 mins DAPI staining based fluorescence microscopic analysis; format: cell-based
[18] = test system: L929; test: Cytotoxicity against TNF-alpha induced mouse L929 cells assessed as increase in cell survival pretreated for 12 hrs followed by TNF-alpha induction and measured after 20 hrs by MTT assay; format: toxicity, cell-based; details: l929, 32 h

H-DEFHLELHLYQSW-OH
inhibition [1]: Dose-Dependent Effect
inhibition [2]: Active
Activity [3]: Dose-Dependent Effect
inhibition [4]: Tde
inhibition [5]: Active
EC50 [6]: 17 µM
inhibition [7]: Tde
Activity [8]: Dose-Dependent Effect
IC50 [9]: 15.4 µM
inhibition [10]: Active
inhibition [11]: Active
Activity [12]: Dose-Dependent Effect
inhibition [13]: Active
Activity [14]: Dose-Dependent Effect
inhibition [15]: Dose-Dependent Effect
EC50 [16]: 7.25 µM
inhibition [17]: Active

Cc1c2oc3c(C)ccc(C(=O)N[C@@H]4C(=O)N[C@H](C(C)C)C(=O)N5CCC[C@H]5C(=O)N(C)CC(=O)N(C)[C@@H](C(C)C)C(=O)O[C@@H]4C)c3nc-2c(C(=O)N[C@@H]2C(=O)N[C@H](C(C)C)C(=O)N3CCC[C@H]3C(=O)N(C)CC(=O)N(C)[C@@H](C(C)C)C(=O)O[C@@H]2C)c(N)c1=O [DACTINOMYCIN] (I: T[dV]P[Sar][NMeV] / II: T[dV]P[Sar][NMeV]; ester I:1-I:C, II:1-II:C; linker I:N-II:N via Actinocin(9to1))
Activity [18]: 70%
